Results reported in patent US11780880B2, “High-activity memory-improving derivative peptide and use thereof” (Jilin Agricultural University, priority 2021, dated 2023).
Peptide text beside a SMILES is read from it.

Assays:
[1] = ABTS free radical scavenging assay; type: physicochemical; details: concentration of 100 μM
Procedure: (1) ABTS free radical scavenging assay: Equal volumes of a 7 mmol/L ABTS aqueous solution and a 2.49 mmol/L potassium persulfate aqueous solution were mixed and left to stand in the dark for 12 h to obtain an ABTS free radical stock solution, which was stored at 4° C. When in use, the stock solution was diluted with 5 mmol/L PBS until the absorbance of the solution was 0.700±0.002 at 734 nm, and an ABTS free radical working solution was prepared. Separately, 10 μL of each of the aqueous solutions of derivative peptides with a concentration of 100 μM was added to a 96-well plate, while glutathione (GSH) of the same concentration was used as a control; these solutions reacted with 190 μL of ABTS free radical working solution accurately for 6 min, and absorbance values (A1) were measured at a wavelength of 734 nm using a microplate reader. The calculation formula for scavenging rate is as follows: […]
where A0 is the absorbance value that replaces the derivative peptide solution with distilled water;
A1 is the absorbance value of the solution adding a derivative peptide or GSH; and
A2 is the absorbance value of the solution using 5 mmol/L PBS instead of the ABTS free radical working solution.

[2] = Oxygen radical antioxidant capacity (ORAC) assay; type: physicochemical; details: 100 μM aqueous solutions
Procedure: (2) ORAC assay: (1) On a 96-well black plate, 25 μL each of PBS, Trolox standard solutions (12.5, 25, 50, and 100 μM) and aqueous solutions of five derivative peptides (100 μM) was added. The 96-well plate was placed and shaken in a microplate reader preheated for 30 min for 5 s, and incubated at 37° C. for 10 min. To each well, 150 μL each of FL working solution was added using a multi-channel pipette, and the plate was shaken for 5 s and incubated at 37° C. for 20 min. To each well, 25 μL each of AAPH was quickly added using the multi-channel pipette, and the plate was shaken for 5 s, followed by reading. The fluorescence intensity was continuously measured at an excitation wavelength of (485±20) nm and an emission wavelength of (530±20) nm. The whole system was held at 37° C., and the fluorescence intensity was measured every 2 min. Before each measurement, the well plate was shaken at a medium speed for 10 s, and the oscillation amplitude was 4 mm. The measurement was performed until the fluorescence intensity reached 5% of the initial fluorescence intensity (60 cycles were set in this assay). The relative fluorescence intensity is calculated by the area under the fluorescence decay curve (AUC) as follows: AUC=0.5×[2×(f0+f1 . . . +fn-1+fn)−f0−fn]×Δt
(1) In the formula, fn is the relative fluorescence intensity at the n-th measurement point; and Δt is the interval between adjacent time points, namely 2 min.
(2) The measurement results are expressed as ORAC values. The ORAC values of unknown samples are expressed in μmol TE/g. ORAC value=[(AUCSample−AUCBlank)/(AUCTrolox−AUCBlank)]×CTrolox/CSample.
Herein, AUCSample is the result of each of the aqueous solutions of five derivative peptides; AUCBlank is the result after adding 25 μL of PBS; AUCTrolox is the result after adding Trolox standard solution (100 μM); CTrolox is the molar concentration of Trolox, namely, 100 μM;
CSample is the molar concentration of each derivative peptide, calculated from the Trolox standard curve, where the Trolox standard curve is y=0.0756x+41.989, R^2=0.9931, the abscissa is the molar concentration of Trolox (12.5, 25, 50, or 100 μM), and the ordinate is AUCTrolox.

[3] = Acid-base stability testing (RP-HPLC peak area); type: physicochemical; details: 100 μM, pH 2, 4, 6, and 8, 37° C. for 2 h
Procedure: Acid-base Stability Testing (see FIG. 4B): • Step 1, the solid powder of derivative peptide WYSGK (SEQ ID NO: 4) was dissolved in distilled water to prepare a 100 μM solution, which was used as a blank group and stored at 4° C. for later use; • Step 2, the solid powder of derivative peptide WYSGK (SEQ ID NO: 4) was diluted with aqueous solutions with pH 2, 4, 6, and 8 to a concentration of 100 μmol/L, respectively, and the resulting solutions were incubated in a water bath at 37° C. for 2 h; • Step 3, the blank group and WYSGK (SEQ ID NO: 4) sample solutions at different pH were filtered through a 0.22 μm filter membrane; • Step 4, RP-HPLC was performed under the following conditions: detection wavelength: 220 nm; column temperature: 25° C.; mobile phase A: 100% acetonitrile+0.1% TFA; mobile phase B: 100% acetonitrile+0.1% TFA. Elution conditions were programmed as follows: 0-25 min, 10%-35% B (gradient elution); flow rate 1.0 mL/min; and • Step 5, the peak area in the liquid chromatogram was calculated to determine whether the derivative peptide WYSGK (SEQ ID NO: 4) was degraded at different pH (refer to Liu Xintong's method, Sci. Technol. Food Ind., Vol. 41, No. 19, 2020).

[4] = Simulated gastrointestinal digestion stability testing; type: in vitro ADME; details: pepsin up to 2 h then trypsin up to 2 h, 37° C.
Excerpt: […]

[5] = Thermal stability testing (RP-HPLC peak area); type: physicochemical; details: 100 μM, pH 7.0, 20-100° C. water bath for 2 h
Procedure: Thermal Stability Testing (see FIG. 4A): • Step 1, the solid powder of derivative peptide WYSGK (SEQ ID NO:4) was dissolved in distilled water to prepare a 100 μM solution, the pH value was adjusted to 7.0, and the resulting solution was stored at 4° C. for later use; • Step 2, the derivative peptide WYSGK (SEQ ID NO: 4) solution in step 1 was divided into five tubes (1 mL/tube), and each tube was placed in a water bath at 20, 40, 60, 80, and 100° C. for 2 h; • Step 3, the blank group (the derivative peptide WYSGK (SEQ ID NO: 4) solution in step 1 without water bath treatment) and the derivative peptide WYSGK (SEQ ID NO:4) solution at each temperature were filtered through a 0.22 μm filter membrane; • Step 4, RP-HPLC was performed under the following conditions: detection wavelength: 220 nm; column temperature: 25° C.; mobile phase A: acetonitrile+0.1% (v/v) TFA; mobile phase B: acetonitrile+0.1% (v/v) TFA. Elution conditions were programmed as follows: 0-25 min, 10%-35% B (the value could be input in the liquid phase equipment); flow rate 1.0 mL/min; and • Step 5, the peak area in the liquid chromatogram was calculated to determine whether the derivative peptide WYSGK (SEQ ID NO:4) was degraded at different temperatures (refer to Liu Xintong's method, Sci. Technol. Food Ind., Vol. 41, No. 19, 2020).

[6] = system: scopolamine-induced memory impairment model mice; experiment: Morris water maze (place navigation and probe trial); type: in vivo, Male C57BL/6N mice
Procedure: In vivo studies were performed in accordance with the Guide for the Care and Use of Laboratory Animals published by the […]. Male C57BL/6N mice weighing 25-30 g were purchased from Liaoning Changsheng Biotechnology Co., Ltd. (Benxi, China). Mice were housed at a stable temperature (22±1° C.) under a 12 h/12 h light/dark cycle. The mice were given access to standard diet and water ad libitum. […]
A circular pool for Morris water maze (1,200 mm in diameter) was filled with warm water at 20±2° C., while a platform (65 mm diameter) was hidden in the Southwest (SW) quadrant 1 cm below the water surface. A mouse was gently placed in the Northeast (NE) quadrant facing the pool wall, the swimming trajectory of the mouse was recorded by the image acquisition system, and the time was measured for 120 s. The time it took to find the platform in the SW quadrant within 120 s was recorded as the latency, while the mouse that reached the platform was allowed to sit on the platform for 10 s and then returned to the holding cage. […] Subsequently, the time from the mice being placed in the water to finding the platform was analyzed and calculated according to the data acquisition system (see FIG. 2A). […]
After the place navigation was completed, the platform hidden in the water was taken out. A mouse was gently placed in the Northeast (NE) quadrant facing the pool wall, the swimming trajectory of the mouse was recorded by the image acquisition system, and the time was measured for 90 s. According to the data acquisition system, the time spent in the target quadrant (see FIG. 2B) and the frequency of original platform crossing (see FIG. 2C) within 90 s were analyzed and calculated on the mouse. […]

Compound | ABTS free radical scavenging rate [1] | ORAC value [2] | further results
N[C@@H](CCC(=O)N[C@@H](CS)C(=O)NCC(=O)O)C(=O)O [GSH, reduced glutathione, reference compound] | 31.39% | 995.58 μmol TE/g | –
NCCCC[C@H](NC(=O)CNC(=O)[C@H](CO)NC(=O)[C@H](Cc1ccc(O)cc1)NC(=O)[C@@H](N)Cc1c[nH]c2ccccc12)C(=O)O [WYSGK, Trp-Tyr-Ser-Gly-Lys] (H-WYSGK-OH; N-terminus and C-terminus assumed) | – | – | degradation at different pH (acid-base stability) [3]: hardly degraded; retention rate of peptide content [4]: at least 93.45%; degradation at different temperatures (thermal stability) [5]: hardly degraded
Trp-Tyr-Glu-Gly-Lys (WYEGK; derivative peptide) | 54.48% | 5,422.29 μmol TE/g | –
Trp-Tyr-Lys-Gly-Lys (WYKGK; derivative peptide) | 40.31% | 3,681.50 μmol TE/g | –
Trp-Tyr-Phe-Gly-Lys (WYFGK; derivative peptide) | 36.56% | 3,762.05 μmol TE/g | –
WYPGK: pine nut-derived antioxidant peptide, template for the derivative peptides (pine nut antioxidant peptide) | – | – | escape latency compared with the model group ([6]; place navigation, 5-day training, FIG. 2A): shorter escape latency; time spent in target quadrant compared with the model group ([6]; probe trial, within 90 s, FIG. 2B): significant decreases; frequency of original platform crossing compared with the model group ([6]; probe trial, within 90 s, FIG. 2C): significant decreases
